Consider 16 molecules from patent US10301323B2, “Histone deacetylase inhibitors” (BIOMARIN PHARMACEUTICAL INC., priority 2011, dated 2019).

pIC50: −log10 of the molar value. Read-outs that look alike come from different tables or passages of the source.

Series [1] has as its system HCT116 cells. Kind of series: Cell proliferation assay. Type of series: cell-based. Particulars: Homo sapiens, HCT-116, 72 h, read-out: Hct-116 (anti-proliferation IC50). The procedure: HCT116 cells (5000 cells/well) in 80 μL McCoy's 5 A medium containing 10% v/v FBS, 1% v/v penicillin/streptomycin and 1% v/v L-glutamine were incubated in 96-well plates with compounds at various concentrations for 72 h at 37° C. in a 5% CO2 atmosphere. The compound dilutions were made in 100% DMSO followed by parallel dilutions in media. The final concentration of DMSO in each well was 0.05%. After 72 h, 20 μL of Cell titer 96 aqueous one solution (Promega Corporation, Madison, Wis.) were added to the cells and the plate was incubated at 37° C. for another 4 h. The absorbance at 490 nm was then recorded on a 96-well plate reader (Spectramax M2, Molecular Devices, Sunnyvale, Calif.). Data analysis was performed in Microsoft Excel (Microsoft Corp, Redmond, Wash.).

Series [2] concerns C57BL/6J male mice. As to the kind of experiment: Long term memory for object recognition. Particulars: 3, 10, 30 mg/kg subcutaneous; object recognition memory task. Type of series: in vivo. The procedure: C57BL/6J male mice were handled 1-2 min for 5 days and were habituated to the experimental apparatus 5 min a day for 4 consecutive days in the absence of objects. […] 24-h later mice were tested for memory retention (5 min) using the object recognition memory task (ORM), in which a familiar object was replaced with a novel one. All training and testing trials were videotaped and analyzed by individuals blind to the treatment condition and the genotype of subjects. A mouse was scored as exploring an object when its head was oriented toward the object within a distance of 1 cm or when the nose was touching the object. The relative exploration time was recorded and expressed by a discrimination index [DI=(tnovel−tfamiliar)/(tnovel+tfamiliar)×100].

The test system of series [3] is GM 15850 (lymphoblastoid cells line) cells. Kind of series: In-cell deacetylase inhibition assay (DAC assay). The series is classed as cell-based. Particulars: Homo sapiens, GM15850, GM 15850 cells, 4 h incubation. The method, then: Compound dilutions were made in 100% DMSO followed by parallel dilution in media with 2% DMSO. 10 μl of the compound dilutions were added to the cells to achieve the desired concentrations. The final concentration of DMSO in each well was 0.2%. The cells were incubated for 4 h at 37° C. with 5% CO2. After incubation, the cells were centrifuged down and the supernatant was removed. […] The reaction was stopped after 30 min incubation by addition of 50 μL developer (6 mg/mL trypsin in HDAC assay buffer). The reaction was allowed to develop for 30 min at room temperature and the fluorescence signal was detected using a fluorometer (Spectramax M2, Molecular Devices, Sunnyvale, Calif.) with excitation and emission wavelengths of 360 nm and 470 nm respectively. The data was fitted to a sigmoidal dose response equation with variable slope in GraphPad Prism 5.0 (GraphPad Software, La Jolla, Calif.) to determine IC50. Bottom and top of the curve were fixed to the average fluorescence response of control wells with no cells and cells but no compound respectively.

Series [4] is described as follows: Compound stability in hepatocytes. Particulars: human hepatocytes, 5 μM compound.
Experimental: To assess the stability and metabolism of RGFP compounds in hepatocytes. This assay was designed to evaluate the metabolism of RGFP compounds, following their incubation with human, monkey, dog and rat hepatocytes by monitoring either parent drug disappearance or metabolite appearance using HPLC.
Procedure: • Turn on the water-bath heater to 37° C. • Take out the KHB buffer and make sure it is at room temp before use • Prepare 2.5 mM concentration of RGFP compound in DMSO stock • Add 10 μL of above DMSO stock to 2490 μL KHB buffer; final concentration of RGFP compound will be 10 μM • Pre-warm 45 ml InVitro HT Medium to 37° C. in a sterile 50 ml conical tube • Add 1.0 mL Torpedo Antibiotic Mix per 45 mL InVitro HT medium • Transfer 13 mL of warm HT medium with Antibiotic Mix into a 15 mL conical tube. • Carefully remove the hepatocyte vials from liquid nitrogen (liquid phase). • Immediately immerse the vial into a 37° C. water bath. Shake gently until the ice melts entirely. […] Loosen the cell pellet by gently swirling the centrifuge tube • Transfer 100 μL of above solution to a different tube and add 900 μL of KHB buffer to count the cells • Determine the total cell count and the number of viable cells using the Trypan Blue exclusion method • Once you obtain the cell count, multiply the number by 10 (attributing to the dilution factor) • Now add required volume of KHB buffer to the tube containing hepatocytes such that the final count will be 2 million cells/mL • Dispense 50 μL of 2 million cells/ml to a 96 well plate and then add 50 μl of DMSO stock to respective wells (such that, the concentration of RGFP compounds is 5 μM and number of cells are 100000 in each well) • Place the plates on a shaker in a 37° C. incubator with 5% CO2 • Separate plates for each time point are advisable (Time points: 0 h, 1 h, 2 h, and 6 h) • After each time point, add 100 μL of quenching solution. • Quenching solution is an acetonitrile solution containing RGFP531 (10 μM) internal standard, 0.1% formic acid and phenylglyoxol (400 μM). The formic acid and phenylglyoxal is used for the identification and quantification of OPD as mentioned above. • Pipette up and down a few times to ensure a complete stop of reaction • Transfer all the solution into a 1.5 ml tube, vortex thoroughly, and centrifuge at 14000 RPM at 4° C. for 5 minutes to precipitate cell debris
Transfer the 150 μL of supernatant to vials for analysis using HPLC
Series [5] can be described thus: Brain penetration studies. Particulars: Table 4; mice dosed s.c. at 5 mg/kg or 50 mg/kg, or i.v. at 5 mg/kg; Cmax(brain)/Cmax(plasma).
Experimental: Test compounds were prepared at either 0.5 mg/ml or 5 mg/ml in 30% hydroxypropyl-β-cyclodextrin, 100 mM sodium acetate pH 5.5, 5% DMSO. C57/BL6/J mice were dosed s.c. at 5 mg/kg or 50 mg/kg, or i.v. at 5 mg/kg. Animals were euthanized at pre-dose, 5, 15, 30 min, 1, 2 and 4 hours post-dose and plasma and brain obtained. Three animals per dose per time points were used. The levels of compound in the plasma and brain were determined by standard LC/MS/MS methods. Brain/plasma ratio (BPR) was calculated as the ratio of the Cmax(brain)/Cmax(plasma).
Series [6] concerns frataxin (FXN) mRNA in primary lymphocytes from Friedreich's ataxia patient donors. As to the kind of experiment: Effect of HDAC inhibitors on frataxin (FXN) mRNA expression. Type of series: cell-based, human. The following applies: Table 4, concentration required for a 2-fold increase in FXN mRNA, 48 hours. The procedure: Blood is collected from Friedreich's ataxia patient donors into tubes containing the anti-coagulant EDTA. Primary lymphocytes are isolated using Lymphocyte Separation Medium (MP Biomedicals, Solon, Ohio) following the manufacturer's instructions and including a few modifications made by Repligen. After a final wash in Phosphate Buffered Saline (PBS), the cells are distributed into a 6-well cell culture plate in cell growth medium. The test HDAC inhibitor compound is added to cells in a dose escalating manner (usually concentrations range from 1 to 10 μM) and 0.1% DMSO is added to one well of cells as a no treatment control. Cells are incubated for 48 hours at 37° C. in a CO2 incubator; cell counts are taken using a Countess automated cell counter (Invitrogen, Carlsbad, Calif.). Equivalent numbers of cells for all treatment conditions are pelleted by centrifugation and resuspended in cell lysis buffer. Total RNA is isolated from approximately 1×10^6 primary lymphocytes using a RNeasy Mini Kit (Qiagen, Valencia, Calif.), following the manufacturer's instructions and including an optional on-column DNAse digestion step. […] The RNA yield and concentration is determined using a Nanodrop spectrophotometer (Thermo Fisher Scientific, Waltham, Mass.) and depending on the RNA concentration, one of two protocols is used to measure frataxin (FXN) transcript levels. […] In both methods each RNA sample is analyzed in triplicate (preferably) or duplicate (minimally) using a one-step qRT-PCR master mix that contains all the components necessary for cDNA synthesis and PCR amplification in a single, continuous reaction. […] The amount of FXN (or GAPDH) in the sample is determined as the relative quantity to the calibrator where the calibrator sample is assigned an arbitrary quantity of 1. The following equation is used: Relative quantity to the calibrator=2^−ΔCt where ΔCt=(Ct_gene)unknown−(Ct_gene)calibrator, gene is either FXN or GAPDH, calibrator is a DMSO control sample, and unknown is a HDACi treated sample. The relative quantity of FXN is normalized to cell number and RNA input. […]

On to `Cn1cnc(/C=C/C(=O)Nc2ccccc2N)c1` [A12], for which the pIC50 in series [1] is less than 4.70. The same measure, in the same setting: for `Nc1ccccc1NC(=O)/C=C/c1cnn(CCOc2cc(F)cc(Cl)c2)c1` [B5, (E)-N-(2-aminophenyl)-3-(1-(2-(3-chloro-5-fluorophenoxy)ethyl)-1H-pyrazol-4-yl)acrylamide] the value was 4.70 to 5.00. For the molecule `Nc1cc(F)ccc1NC(=O)/C=C/c1cnn(C/C=C/c2ccccc2)c1` [D2, (E)-N-(2-amino-4-fluorophenyl)-3-(1-cinnamyl-1H-pyrazol-4-yl)acrylamide], the “dose dependence of the effect on long-term memory” value in series [2] is listed as “no effect of dose”.

Regarding `Nc1ccccc1NC(=O)/C=C/c1csc(C/C=C/c2ccccc2)n1` [E2, (E)-N-(2-aminophenyl)-3-(2-cinnamylthiazol-4-yl)acrylamide], the pIC50 in series [1] was less than 4.70; in series [3] (read-out: 850 DAC (in-cell deacetylase inhibition IC50)) it was 4.70 to 5.00. Take `Nc1ccccc1NC(=O)c1ccc(C=C2CCN(Cc3cccnc3)CC2)c(Cl)c1` [F7]: the pIC50 in series [3] (Table 4, read-out: DAC IC50) was 5.00 to 5.30. Regarding `CN1C2CCC1CC(=Cc1ccc(C(=O)Nc3ccccc3N)cc1Cl)C2` [F8], the pIC50 in series [3] (Table 4, read-out: DAC IC50) is more than 6.00.

Regarding `Nc1ccccc1NC(=O)c1ccc(C=C2COC2)cc1F` [F9], in series [3] (Table 4, read-out: DAC IC50), the pIC50 is more than 6.00. Further, the “% left 6h Hum” value in series [4] is “IA (IA<10%)”.

Regarding `Nc1ccccc1NC(=O)c1ccc(C=C2CN(CC3CC3)C2)c(Cl)c1` [F10], the pIC50 in series [3] (Table 4, read-out: DAC IC50) was 5.00 to 5.30. In addition, the BPR entry in series [5] is given as “A (A is greater than 1)”. The like results for `Nc1ccccc1NC(=O)c1ccc(C=C2COC2)c(Cl)c1` [F11] were, in that order, more than 6.00 and “A (A is greater than 1)”. `Nc1ccccc1NC(=O)c1ccc(C=C2CN(CC3CC3)C2)cc1` [F12]: the pIC50 in series [3] (Table 4, read-out: DAC IC50) is more than 6.00. Also, the “% left 6h Hum” value in series [4] is given as “A (50%<A)”. Besides, the “Fxn >2X (uM)” value in series [6] was “A (A if less than 5 μM)”. Besides, the BPR result in series [5] was “A (A is greater than 1)”. As for `Nc1ccccc1NC(=O)c1ccc(C=C2CCN(CC3CC3)CC2)cc1` [F13], in series [5], the BPR result was “A (A is greater than 1)”.

For the molecule `CC(C)(C)CN1CCC(=Cc2ccc(C(=O)Nc3ccccc3N)cc2)CC1` [F14], in series [3] (Table 4, read-out: DAC IC50), the pIC50 was 5.30 to 6.00. The “Fxn >2X (uM)” value in series [6] is listed as “A (A if less than 5 μM)”. Also, the BPR entry in series [5] is “A (A is greater than 1)”. `CC(C)(O)CN1CCC(=Cc2ccc(C(=O)Nc3ccccc3N)cc2)CC1` [F15]: the pIC50 in series [3] (Table 4, read-out: DAC IC50) is 5.30 to 6.00. Besides, in series [4], the “% left 6h Hum” value is “A (50%<A)”. In series [6], the “Fxn >2X (uM)” value is listed as “A (A if less than 5 μM)”. For the same molecule, the BPR result in series [5] is “A (A is greater than 1)”. Turning to `CC(C)(O)CN1CC(=Cc2ccc(C(=O)Nc3ccccc3N)cc2)C1` [F19], the “% left 6h Hum” value in series [4] was “A (50%<A)”. Consider `Nc1cc(F)ccc1NC(=O)c1ccc(C=C2CN(CC3CC3)C2)cc1` [F20], for which, in series [4], the “% left 6h Hum” value is on record as “A (50%<A)”. For `Cc1ccc(C(=O)NCCCCCC(=O)Nc2ccc(F)cc2N)cc1` [RGFP 136, reference compound], the “dose dependence of the effect on long-term memory” value in series [2] was “Dose dependent effects”.
